{"source": "patent US10407467B2", "about": "“Polymyxin derivatives and their use in combination therapy together with different antibiotics” (priority 2013, dated 2019)", "key": {"Acinetobacter baumannii": {"test_system": "Acinetobacter baumannii", "test": "MIC, sole activity (no second agent)", "assay_type": "cell-based", "summary_of_the_method": "(§1)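 Compound tested without a second agent in cation-adjusted MHB, up to four strains per species, inoculum at 0.5 McFarland from colonies grown 18-24 h on Mueller-Hinton agar. Run in duplicate, invalid beyond 2-fold disagreement, lower duplicate or modal repeat value given, expressed relative to Polymyxin B.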"}, "Escherichia coli": {"test_system": "Escherichia coli", "test": "MIC, sole activity (no second agent)", "assay_type": "cell-based", "summary_of_the_method": "as §1"}, "Klebsiella pneumoniae": {"test_system": "Klebsiella pneumoniae", "test": "MIC, sole activity (no second agent)", "assay_type": "cell-based", "summary_of_the_method": "as §1"}, "Pseudomonas aeruginosa": {"test_system": "Pseudomonas aeruginosa", "test": "MIC, sole activity (no second agent)", "assay_type": "cell-based", "summary_of_the_method": "as §1"}, "[1]": {"test_system": "Escherichia coli isolate ATCC25922", "settings": "10 mg/kg/day (5 mg/kg BID subcutaneous), neutropenic CD-1 mice, 24 h post-infection", "method": "At 1 h, the CFU count was determined from 5 mice and the remaining mice (five per group) were treated with a subcutaneous injection of the drug at +1 and 6 hr post-infection.\nTwenty-four hours after infection, the mice were euthanized humanely. The muscle of the right thigh of each animal was harvested, homogenized, serially diluted and plated on Brain Heart Infusion agar+0.5% charcoal (w/v) for CFU determination. Decrease of the total CFU of right thigh as compared to control counts at 24 h post-infection was determined for each dose group."}, "[2]": {"settings": "Second Agent none (Table 7B, by row order)"}}, "note": "Bridge positions count the residues as written; N and C are the ends. Square brackets hold non-standard residues; d marks the D form. Peptide text beside a SMILES is read from it. * marks the point of attachment. ξ: configuration not given here. ξβ3hGly(cHex) = NC(CC(=O)*)C1CCCCC1; Thr(3ξ) = CC(O)[C@H](N)C(=O)O; Dab = NCC[C@H](N)C(=O)O", "data": [{"smiles": "CC(C)C[C@@H]1NC(=O)[C@@H](Cc2ccccc2)NC(=O)[C@H](CCN)NC(=O)[C@@H](NC(=O)[C@H](CCN)NC(=O)[C@@H](NC(=O)CC(N)C2CCCCC2)C(C)O)CCNC(=O)[C@H](C(C)O)NC(=O)[C@H](CCN)NC(=O)[C@H](CCN)NC1=O", "note": "(stereo partly drawn) [Example 10, [3(R,S)-3-Amino-3-cyclohexane-propanoyl]Polymyxin B nonapeptide] ({ξβ3hGly(cHex)}-[Thr(3ξ)][Dab][Dab][Dab][dF]L[Dab][Dab][Thr(3ξ)]; lactam 3-C)", "values": [{"measurement": "MIC A. baumannii NCTC 13424", "setting": "Acinetobacter baumannii; [2]", "result": 2, "unit": "micrograms/mL"}, {"measurement": "MIC A. baumannii NCTC 13424", "setting": "Acinetobacter baumannii; Second Agent none (Table 7E)", "result": 0.5, "unit": "micrograms/mL"}, {"measurement": "MIC A. baumannii NCTC 13424", "setting": "Acinetobacter baumannii; Table 7F, A. baumannii NCTC 13424, second agent none", "result": 0.5, "unit": "micrograms/mL"}, {"measurement": "MIC A. baumannii NCTC 13424", "setting": "Acinetobacter baumannii; Table 7H, A. baumannii NCTC 13424, second agent none", "result": 0.5, "unit": "micrograms/mL"}, {"measurement": "MIC A. baumannii ATCC13424", "setting": "Acinetobacter baumannii; in the absence of Rifampicin, strain ATCC13424", "result": 1, "unit": "micrograms/mL"}, {"measurement": "MIC A. baumannii ATCCBAA-747", "setting": "Acinetobacter baumannii; in the absence of Rifampicin, strain ATCCBAA-747", "result": 0.5, "unit": "micrograms/mL"}, {"measurement": "MIC A. baumannii CCUG57249", "setting": "Acinetobacter baumannii; in the absence of Rifampicin, strain CCUG 57249", "result": 0.5, "unit": "micrograms/mL"}, {"measurement": "MIC A. baumannii NCTC 13423", "setting": "Acinetobacter baumannii; in the absence of Rifampicin, strain NCTC13423", "result": 0.125, "unit": "micrograms/mL"}, {"measurement": "MIC E. coli NCTC9001", "setting": "Escherichia coli; E. coli NCTC9001, second agent none", "result": 4, "unit": "micrograms/mL"}, {"measurement": "MIC E. coli NCTC9001", "setting": "Escherichia coli; Second Agent none (Table 7A)", "result": 4, "unit": "microgram/mL"}, {"measurement": "MIC E. coli ATCC25922", "setting": "Escherichia coli; Second Agent none (Table 7B)", "result": 4, "unit": "micrograms/mL"}, {"measurement": "MIC E. coli CCUG 59342", "setting": "Escherichia coli; Second Agent none (Table 7B)", "result": 0.5, "unit": "micrograms/mL"}, {"measurement": "MIC E. coli NCTC9001", "setting": "Escherichia coli; Second Agent none (Table 7B)", "result": 8, "unit": "micrograms/mL"}, {"measurement": "MIC E. coli NCTC9001", "setting": "Escherichia coli; Second Agent none (Table 7C)", "result": 4, "unit": "micrograms/mL"}, {"measurement": "MIC E. coli ATCC25922", "setting": "Escherichia coli; Second Agent none (Table 7E)", "result": 8, "unit": "micrograms/mL"}, {"measurement": "MIC E. coli NCTC 13441", "setting": "Escherichia coli; Second Agent none (Table 7E)", "result": 8, "unit": "micrograms/mL"}, {"measurement": "MIC E. coli ATCC25922", "setting": "Escherichia coli; Table 7F, E. coli ATCC25922, second agent none", "result": 8, "unit": "micrograms/mL"}, {"measurement": "MIC E. coli NCTC 13441", "setting": "Escherichia coli; Table 7F, E. coli NCTC 13441, second agent none", "result": 8, "unit": "micrograms/mL"}, {"measurement": "MIC E. coli ATCC25922", "setting": "Escherichia coli; Table 7G, E. coli ATCC25922, second agent none", "result": 8, "unit": "micrograms/mL"}, {"measurement": "MIC E. coli ATCC25922", "setting": "Escherichia coli; Table 7H, E. coli ATCC25922, second agent none", "result": 8, "unit": "micrograms/mL"}, {"measurement": "MIC E. coli NCTC 13441", "setting": "Escherichia coli; Table 7H, E. coli NCTC 13441, second agent none", "result": 8, "unit": "micrograms/mL"}, {"measurement": "MIC E. coli ATCC25922", "setting": "Escherichia coli; Table 7I, E. coli ATCC25922, second agent none", "result": 8, "unit": "micrograms/mL"}, {"measurement": "MIC E. coli ATCC25922", "setting": "Escherichia coli; in the absence of Rifampicin, strain ATCC25922", "result": 2, "unit": "micrograms/mL"}, {"measurement": "MIC E. coli NCTC9001", "setting": "Escherichia coli; in the absence of Rifampicin, strain NCTC9001", "result": 4, "unit": "micrograms/mL"}, {"measurement": "MIC K. pneumoniae ATCC BAA-1706", "setting": "Klebsiella pneumoniae; K. pneumoniae ATCC BAA-1706, second agent none", "result": 0.5, "unit": "micrograms/mL"}, {"measurement": "MIC K. pneumoniae CCUG 59348", "setting": "Klebsiella pneumoniae; K. pneumoniae CCUG 59348, second agent none", "result": ">32", "unit": "micrograms/mL"}, {"measurement": "MIC K. pneumoniae NCTC 13442", "setting": "Klebsiella pneumoniae; K. pneumoniae NCTC 13442, second agent none", "result": ">32", "unit": "micrograms/mL"}, {"measurement": "MIC K. pneumoniae CCUG 59348", "setting": "Klebsiella pneumoniae; Second Agent none (Table 7A)", "result": ">32", "unit": "microgram/mL"}, {"measurement": "MIC K. pneumoniae CCUG 59626", "setting": "Klebsiella pneumoniae; Second Agent none (Table 7A)", "result": 0.25, "unit": "microgram/mL"}, {"measurement": "MIC K. pneumoniae NCTC 13442", "setting": "Klebsiella pneumoniae; Second Agent none (Table 7A)", "result": ">32", "unit": "microgram/mL"}, {"measurement": "MIC K. pneumoniae CCUG 59348", "setting": "Klebsiella pneumoniae; Second Agent none (Table 7B)", "result": ">32", "unit": "micrograms/mL"}, {"measurement": "MIC K. pneumoniae NCTC 13442", "setting": "Klebsiella pneumoniae; Second Agent none (Table 7B)", "result": ">32", "unit": "micrograms/mL"}, {"measurement": "MIC K. pneumoniae ATCC 4352", "setting": "Klebsiella pneumoniae; [2]", "result": 0.5, "unit": "micrograms/mL"}, {"measurement": "MIC K. pneumoniae ATCC BAA-1706", "setting": "Klebsiella pneumoniae; [2]", "result": 0.5, "unit": "micrograms/mL"}, {"measurement": "MIC K. pneumoniae CCUG 59348", "setting": "Klebsiella pneumoniae; Second Agent none (Table 7C)", "result": ">32", "unit": "micrograms/mL"}, {"measurement": "MIC K. pneumoniae NCTC 13442", "setting": "Klebsiella pneumoniae; Second Agent none (Table 7C)", "result": ">32", "unit": "micrograms/mL"}, {"measurement": "MIC K. pneumoniae ATCC 4352", "setting": "Klebsiella pneumoniae; Second Agent none (Table 7E)", "result": 1, "unit": "micrograms/mL"}, {"measurement": "MIC K. pneumoniae CCUG 59349", "setting": "Klebsiella pneumoniae; Second Agent none (Table 7E)", "result": 8, "unit": "micrograms/mL"}, {"measurement": "MIC K. pneumoniae ATCC 4352", "setting": "Klebsiella pneumoniae; Table 7F, K. pneumoniae ATCC4352, second agent none", "result": 1, "unit": "micrograms/mL"}, {"measurement": "MIC K. pneumoniae CCUG 59349", "setting": "Klebsiella pneumoniae; Table 7F, K. pneumoniae CCUG 59349, second agent none", "result": 8, "unit": "micrograms/mL"}, {"measurement": "MIC K. pneumoniae ATCC 4352", "setting": "Klebsiella pneumoniae; Table 7G, K. pneumoniae ATCC4352, second agent none", "result": 1, "unit": "micrograms/mL"}, {"measurement": "MIC K. pneumoniae ATCC 4352", "setting": "Klebsiella pneumoniae; Table 7H, K. pneumoniae ATCC4352, second agent none", "result": 1, "unit": "micrograms/mL"}, {"measurement": "MIC K. pneumoniae CCUG 59349", "setting": "Klebsiella pneumoniae; Table 7H, K. pneumoniae CCUG 59349, second agent none", "result": 8, "unit": "micrograms/mL"}, {"measurement": "MIC K. pneumoniae ATCC 4352", "setting": "Klebsiella pneumoniae; Table 7I, K. pneumoniae ATCC4352, second agent none", "result": 1, "unit": "micrograms/mL"}, {"measurement": "MIC K. pneumoniae ATCC 4352", "setting": "Klebsiella pneumoniae; in the absence of Rifampicin, strain ATCC 4352", "result": 1, "unit": "micrograms/mL"}, {"measurement": "MIC K. pneumoniae ATCC-BAA2146", "setting": "Klebsiella pneumoniae; in the absence of Rifampicin, strain ATCC-BAA2146", "result": 32, "unit": "micrograms/mL"}, {"measurement": "MIC K. pneumoniae CCUG-59348", "setting": "Klebsiella pneumoniae; in the absence of Rifampicin, strain CCUG-59348", "result": ">32", "unit": "micrograms/mL"}, {"measurement": "MIC K. pneumoniae NCTC-13438", "setting": "Klebsiella pneumoniae; in the absence of Rifampicin, strain NCTC-13438", "result": ">32", "unit": "micrograms/mL"}, {"measurement": "MIC P. aeruginosa CCUG 59626", "setting": "Pseudomonas aeruginosa; P. aeruginosa CCUG 59626, second agent none", "result": 0.25, "unit": "micrograms/mL"}, {"measurement": "MIC P. aeruginosa ATCC 27853", "setting": "Pseudomonas aeruginosa; [2]", "result": 0.25, "unit": "micrograms/mL"}, {"measurement": "MIC P. aeruginosa CCUG 59626", "setting": "Pseudomonas aeruginosa; [2]", "result": 0.25, "unit": "micrograms/mL"}, {"measurement": "MIC P. aeruginosa CCUG 59626", "setting": "Pseudomonas aeruginosa; Second Agent none (Table 7C)", "result": 0.25, "unit": "micrograms/mL"}, {"measurement": "MIC P. aeruginosa ATCC 10145", "setting": "Pseudomonas aeruginosa; Second Agent none (Table 7E)", "result": 0.25, "unit": "micrograms/mL"}, {"measurement": "MIC P. aeruginosa ATCC 10145", "setting": "Pseudomonas aeruginosa; Table 7F, P. aeruginosa ATCC 10145, second agent none", "result": 0.25, "unit": "micrograms/mL"}, {"measurement": "MIC P. aeruginosa ATCC 10145", "setting": "Pseudomonas aeruginosa; Table 7H, P. aeruginosa ATCC 10145, second agent none", "result": 0.25, "unit": "micrograms/mL"}, {"measurement": "MIC P. aeruginosa ATCC 27853", "setting": "Pseudomonas aeruginosa; in the absence of Rifampicin, strain ATCC27853", "result": 0.5, "unit": "micrograms/mL"}, {"measurement": "MIC P. aeruginosa ATCC-47", "setting": "Pseudomonas aeruginosa; in the absence of Rifampicin, strain ATCC-47", "result": 1, "unit": "micrograms/mL"}, {"measurement": "MIC P. aeruginosa ATCCCRM-9027", "setting": "Pseudomonas aeruginosa; in the absence of Rifampicin, strain ATCCCRM-9027", "result": 0.25, "unit": "micrograms/mL"}, {"measurement": "MIC P. aeruginosa CCUG 59626", "setting": "Pseudomonas aeruginosa; in the absence of Rifampicin, strain CCUG 59626", "result": 0.25, "unit": "micrograms/mL"}, {"measurement": "reduction in bacterial counts", "setting": "[1]", "result": "over 3 log10"}]}]}
